Read-outs that look alike come from different tables or passages of the source.
Key:
DNMT1 [1] = target: T1, DNMT1 (Homo sapiens, UniProt P26358); assay: DNMT1 protein Western blotting in cancer cell lines; format: cell-based; set-up: endogenous in cells; host or cells: MV4-11, KG-1a, CCRF-CEM, NCI-H23, HCT-116, IGROV-1 (also HL-60, THP-1)
MV4-11 AML cells = assay: MV4-11 AML xenograft implanted subcutaneously, combination with venetoclax; format: in vivo, mice; settings: administered alone (Aza-T-dCyd 2 mpk), FIGS. 30 and 31
Method: After establishing a xenograft systemic AML model in which MV4-11 AML cells were implanted subcutaneously in mice, Aza-T-dCyd alone at 2.0 mpk for 1 cycle (5 days on, 2 days off, 5 days on, 9 days off) was administered (PO) or Aza-T-dCyd 0.5, 1.0 or 2.0 mpk plus venetoclax 50 mpk or 100 mpk administered orally (PO) for 1 cycle (venetoclax on for 5 days, off for 2 days, repeated for 3 weeks). Anti-cancer efficacy was determined in disease models in which azacitidine 5.0 mpk was administered intraperitoneally (IP) alone or in combination with optimal dose of azacitidine (2.5 mpk) and venetoclax 50 mpk or 100 mpk as a control.

[2] = tested on: systemic MV4-11 engraftment model
Method: After establishing a systemic MV4-11 engraftment model that more accurately depicts the disease in humans, Aza-T-dCyd was administered orally at doses ranging from 0.4 to 1.5 mg/kg.
After establishment of the systemic MV4-11 engraftment model, Aza-T-dCyd was administered orally at doses of 1.5, 2.0, and 2.5 mg/kg (using the standard dose/dosing schedule used in preclinical trials for decitabine/azacytidine).
After establishing a systemic MV4-11 engraftment model, blood was collected at pre-treatment (Day 21) and mid-treatment (Day 36, 56, 77) in the Aza-T-dCyd and Decitabine/Azacytidine groups and analyzed for complete blood count (CBC) values.
To determine whether the anti-cancer efficacy in the systemic MV4-11 engraftment model was directly related to the ability to suppress the number of cancer cells, we performed experiments to measure body luminescence after systemic engraftment using the luciferase-transfected Mv4-11 cell line.

[3] = tested on: p15 tumor suppressor gene; assay: p15 tumor suppressor gene re-expression (RT-PCR) in MV4-11 cells; format: cell-based; settings: MV4-11 cell line
Method: Therefore, to determine the re-expression of tumor suppressor genes through epigenetic regulation mechanisms induced by DNMT1 inhibition upon Aza-T-dCyd (NTX-301) treatment, MV4-11 cells, an AML cell line, were treated with Aza-T-dCyd at different concentrations. […] Table 1 below compares the degree of p15 mRNA re-expression after DNMT1 inhibitor (Aza-T-dCyd/Decitabine) treatment in the MV4-11 cell line, an AML cell (fold increase from 0 nM is shown).

BL0382PD PDX (bladder) = format: in vivo, Mouse; settings: NSG, mouse, in vivo, 0.75 mg/kg, 2 cycles
Description: The efficacy of Aza-T-dCyd was confirmed by tumor growth curves after administration of Aza-T-dCyd in various solid cancer xenograft models. […]

DNA methylation = assay: DNA demethylation; format: cell-based
Description: Through DNA demethylation caused by Aza-T-dCyd treatment, various tumor suppressor genes and genes required for differentiation induction of AML cells were reactivated, and the reactivated expression patterns of these genes were confirmed by RNA-seq data analysis (FIG. 24).

DNMT3B = DNMT3B (Homo sapiens, UniProt Q9UBC3); assay: DNMT3B expression in HL-60 xenograft tumor samples; format: in vivo, mice; set-up: tumor samples were collected on day 11 to determine the expression of DNMT1, DNMT3A, and DNMT3B; from tissue; host or cells: HL-60 xenograft tumour samples (mouse host); settings: 2 mg/kg NTX-301 or 0.75 mg/kg Decitabine intraperitoneally, day 11
Method: (§1) As the efficacy of DNMT1 inhibitors correlates with their selective profile for targeting DNMT1 and the de novo methyltransferases DNMT3A and DNMT3B, we confirmed the expression of DNMT1, DNMT3A, and DNMT3B in the Aza-T-dCyd and Decitabine treated groups in this xenograft model (FIG. 27).
(§2) In the HL-60 xenograft mice model, 2 mg/kg of NTX-301 (Aza-T-dCyd) or 0.75 mg/kg of Decitabine were administered intraperitoneally, and then tumor samples were collected on day 11 to determine the expression of DNMT1, DNMT3A, and DNMT3B. […] On the other hand, the expression levels of DNMT3A and DNMT3B were different in the Aza-T-dCyd and Decitabine treatment groups.

HL-60 AML xenograft = HL-60 AML xenograft model; format: in vivo
leukemia cell lines = assay: Growth-inhibitory activity on leukemia cell lines (GI50); format: cell-based; settings: 72 h, read-out: GI50 values (half maximal growth inhibitory concentrations)
Method: The growth-inhibitory activity of Aza-T-dCyd, a DNMT1 inhibitor, was measured in leukemia cell lines to determine its inhibitory effect on cell proliferation.
The growth-inhibitory activity of DNMT1 inhibitors, Aza-T-dCyd and Decitabine, was measured on leukemia cell lines to determine their effect on cell proliferation.

HCT-116 (colorectal) = HCT-116 (colorectal) xenograft model; format: in vivo, Mouse; settings: colorectal (HCT-116) xenograft, Decitabine comparator, dose not given
Method: The efficacy of Aza-T-dCyd was confirmed by tumor growth curves after administration of Aza-T-dCyd in various solid cancer xenograft models. Aza-T-dCyd at a dose of 1~2 mg/kg was administered repeatedly for 2~6 cycles in QD×5, showing excellent anti-cancer effects (evidenced by test/control (T/C) value≤40%).

DNMT1 [4] = target: T1, DNMT1; assay: DNMT1 expression in HL-60 xenograft tumor samples; format: in vivo, mice; set-up: tumor samples were collected on day 11 to determine the expression of DNMT1, DNMT3A, and DNMT3B; from tissue; host or cells: HL-60 xenograft tumour samples (mouse host); settings: 2 mg/kg NTX-301 or 0.75 mg/kg Decitabine intraperitoneally, day 11
Method: as §1, §2

cytidine deaminase = assay: Degradation by cytidine deaminase; settings: compared to Decitabine/Azacytidine, oral administration
Description: Decitabine/Azacytidine is susceptible to metabolism by cytidine deaminases in the body, resulting in an unstable PK profile that limits its efficacy.

T1 sequence (P26358 whole entry): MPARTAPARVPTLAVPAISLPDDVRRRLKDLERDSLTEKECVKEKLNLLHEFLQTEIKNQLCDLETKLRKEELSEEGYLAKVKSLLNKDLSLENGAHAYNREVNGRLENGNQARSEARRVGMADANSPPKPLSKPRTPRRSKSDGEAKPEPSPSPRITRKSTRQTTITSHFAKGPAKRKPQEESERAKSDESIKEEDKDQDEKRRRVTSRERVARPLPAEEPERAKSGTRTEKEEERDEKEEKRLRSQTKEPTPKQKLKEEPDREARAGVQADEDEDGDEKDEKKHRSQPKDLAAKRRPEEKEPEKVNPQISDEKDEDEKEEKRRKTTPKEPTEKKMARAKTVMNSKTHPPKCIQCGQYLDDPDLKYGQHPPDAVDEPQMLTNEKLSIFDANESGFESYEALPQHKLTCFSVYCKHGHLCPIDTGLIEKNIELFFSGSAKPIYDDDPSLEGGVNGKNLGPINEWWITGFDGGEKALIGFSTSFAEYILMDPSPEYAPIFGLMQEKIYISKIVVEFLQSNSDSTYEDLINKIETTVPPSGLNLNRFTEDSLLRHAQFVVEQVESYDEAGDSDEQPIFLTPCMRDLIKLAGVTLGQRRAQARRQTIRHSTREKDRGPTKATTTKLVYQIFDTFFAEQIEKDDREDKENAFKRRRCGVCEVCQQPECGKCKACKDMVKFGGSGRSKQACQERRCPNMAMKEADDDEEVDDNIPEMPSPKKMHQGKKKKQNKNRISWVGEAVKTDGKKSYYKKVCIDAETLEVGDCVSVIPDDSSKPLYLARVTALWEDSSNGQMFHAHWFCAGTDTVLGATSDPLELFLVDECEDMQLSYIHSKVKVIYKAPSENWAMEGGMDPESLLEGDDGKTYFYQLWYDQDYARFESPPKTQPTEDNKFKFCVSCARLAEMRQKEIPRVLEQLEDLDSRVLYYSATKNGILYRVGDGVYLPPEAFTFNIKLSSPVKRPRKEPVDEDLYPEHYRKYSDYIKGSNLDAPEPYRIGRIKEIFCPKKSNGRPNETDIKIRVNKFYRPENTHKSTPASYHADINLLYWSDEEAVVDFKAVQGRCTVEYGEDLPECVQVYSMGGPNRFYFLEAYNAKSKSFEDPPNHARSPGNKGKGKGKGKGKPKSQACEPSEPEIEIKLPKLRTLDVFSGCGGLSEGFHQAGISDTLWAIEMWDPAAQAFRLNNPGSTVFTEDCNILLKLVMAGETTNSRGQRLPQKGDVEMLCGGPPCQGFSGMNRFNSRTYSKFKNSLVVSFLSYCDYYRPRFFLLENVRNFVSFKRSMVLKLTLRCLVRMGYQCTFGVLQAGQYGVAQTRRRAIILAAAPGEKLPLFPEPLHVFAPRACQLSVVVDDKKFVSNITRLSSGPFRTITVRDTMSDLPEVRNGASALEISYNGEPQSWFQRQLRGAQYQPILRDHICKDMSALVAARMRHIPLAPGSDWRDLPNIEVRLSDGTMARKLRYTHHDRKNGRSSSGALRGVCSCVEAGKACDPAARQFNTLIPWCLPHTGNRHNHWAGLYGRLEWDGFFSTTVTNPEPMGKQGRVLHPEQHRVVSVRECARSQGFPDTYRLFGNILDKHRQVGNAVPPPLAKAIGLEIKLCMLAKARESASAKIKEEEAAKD

**Q.** Which results are given for Nc1ccn([C@H]2C[C@H](O)[C@@H](CO)S2)c(=O)n1 [T-dCyd, reference compound]?
**A.** DNMT1 inhibition (DNMT1 [1]; CCRF-CEM (ALL cell line) cells, FIG. 12): inhibits DNMT1; DNMT1 inhibition (DNMT1 [1]; KG-1a (AML cell line) cells, FIG. 11): inhibits DNMT1; DNMT1 inhibition (DNMT1 [1]; NCI-H23, HCT-116 and IGROV-1 cell lines, FIG. 13): inhibits DNMT1

**Q.** Which “anti-cancer effect (tumor volume), single agent” value (MV4-11 AML cells) does the source give for CC1(C)CCC(CN2CCN(c3ccc(C(=O)NS(=O)(=O)c4ccc(NCC5CCOCC5)c([N+](=O)[O-])c4)c(Oc4cnc5[nH]ccc5c4)c3)CC2)=C(c2ccc(Cl)cc2)C1 [Venetoclax] here?
**A.** limited tumor regression

**Q.** For Nc1ncn([C@@H]2O[C@H](CO)[C@@H](O)[C@H]2O)c(=O)n1 [Azacytidine, reference compound], which “complete blood count (WBC, RBC, Neutrophil, Platelet)” value ([2]; mouse, in vivo) is on record?
**A.** severe neutropenia

**Q.** With Nc1ncn([C@H]2C[C@H](O)[C@@H](CO)O2)c(=O)n1 [Decitabine, 5-aza-2′-deoxycytidine] as the molecule, how does the “p15 mRNA re-expression” value ([3]; 6 nM) read?
**A.** 1.3 ± 0.27 fold increase from 0 nM

**Q.** And the “p15 mRNA re-expression” value ([3]; 20 nM)?
**A.** 1.7 ± 0.85 fold increase from 0 nM

**Q.** What about the “p15 mRNA re-expression” value ([3]; 60 nM) of the same molecule?
**A.** 2.2 ± 0.52 fold increase from 0 nM

**Q.** And the “p15 mRNA re-expression” value ([3]; 200 nM)?
**A.** 4.3 ± 0.83 fold increase from 0 nM

**Q.** And the toxicity (BL0382PD PDX (bladder))?
**A.** showed toxicity after 2 cycles

**Q.** What about the DNMT1 inhibition (DNMT1 [1]; MV4-11 (AML cell line) cells, different concentrations, FIG. 10) of the same molecule?
**A.** inhibits DNMT1

**Q.** And the “pattern of DNA demethylation” value (DNA methylation)?
**A.** genome-wide demethylation

**Q.** What about the “DNMT3B expression level in tumor samples” value (DNMT3B) of the same molecule?
**A.** no effect was observed

**Q.** And the “tolerability above the maximum dose” value (HL-60 AML xenograft; above 0.75 mg/kg)?
**A.** animals died above this dose

**Q.** And the tumor suppression (HL-60 AML xenograft; maximum dose 0.75 mg/kg)?
**A.** no tumor suppression

**Q.** What about the “anti-AML activity and survival” value ([2]; Aza-T-dCyd oral 1.5, 2.0 and 2.5 mg/kg, decitabine/azacytidine at standard preclinical dose/schedule) of the same molecule?
**A.** no therapeutic effect

**Q.** And the “complete blood count (WBC, RBC, Neutrophil, Platelet)” value ([2]; blood at Day 21, 36, 56, 77)?
**A.** all individuals died before blood samples were collected

**Q.** And the GI50 (leukemia cell lines)?
**A.** 24 to 4300 nM

**Q.** What about the T/C (HCT-116 (colorectal)) of the same molecule?
**A.** 45%

**Q.** And the “DNMT1 expression in tumor samples” value (DNMT1 [4])?
**A.** significantly reduced

**Q.** How did the “rate of degradation by cytidine deaminase” value (cytidine deaminase) turn out when Nc1ncn(C2CC(O)C(COP(=O)(O)OP(=O)(O)OP(=O)(O)O)S2)c(=O)n1 (stereo not drawn) [aza-T-dCTP] was run?
**A.** slower rate of degradation by cytidine deaminase
